Reference: US20090130223A1, “COSMETIC PREPARATION WITH AQUAPORIN STIMULATORS AND THE USE THEREOF” (priority 2006, published 2009)

Test system: aquaporin-3 mRNA in human keratinocytes
Test: AQP-3 mRNA expression in human keratinocytes by quantitative RT-PCR
Type: cell-based
Settings: 24 h, 3% w/v glycerol glucoside in culture medium (450 mOsm), compared with 1% w/v glycerin, 2.25% w/v glucose, and 1.5% w/v glycerol glucoside + 0.5% w/v glycerin
Method: To this end, human keratinocytes were treated in triplicate in cell culture (37° C., Medium Cambrex No. CC-3158 incl. Supplement kit No. CC-4152; +0.1 mM CaCl2) for 24 h as follows: • Untreated control (corresponds to 330 mOsm, isomolar culture medium) • Addition of 1% w/v glycerin to the culture medium (corresponds to 450 mOsm, osmotic stress) • Addition of 1.5% w/v glycerol glucoside and 0.5% w/v glycerin to the culture medium (corresponds to 450 mOsm osmotic stress, mixture ratio regarding number of particles 1:1) • Addition of 3% w/v glycerol glucoside to the culture medium (corresponds to 450 mOsm, osmotic stress) • Addition of 2.25% w/v glucose to the culture medium (corresponds to 450 mOsm, osmotic stress)
The different amounts used are due to the different molecular weights of the substances. The contribution to the increase in osmolarity in the culture medium depends solely on the added particle number, and this is the same in all of the tests.
After harvest and lysis the entire RNA was isolated from the cells and the aquaporin-3 mRNA relatively contained was determined by means of quantitative RT-PCR.
The concentration indication w/v means mass per volume, wherein 1.0% w/v corresponds to one gram substance in 100 ml solution.

Substance: Glyceryl glucoside
- expression level of the aquaporin-3 mRNA relativized on 18S rRNA (stimulating effect): better stimulating effect than classic glycerin or glucose alone or a 1:1 mixture of glycerin and glyceryl glucoside
